In patent US7037656B2, “Methods and compositions for identifying ligands for nuclear receptors” (priority 2000, dated 2006):
Several values for one entry are separate records, joined by “and”; a condition that tells them apart may be missing. Equal entries are not always repeated.

Key:
Assay in all cases: Yeast 6x EcRE-lacZ β-galactosidase transactivation assay
[1] = molecular target: T1, Cf ΔA/B EcR + Cf ΔA/B USP + GRIP1 (Choristoneura fumiferana, UniProt O77240); format: cell-based; details: RH 5992 10 μM, 4 hours, DMSO control 0.200
T1 construct: human ubiquitin (76 aa) (N, cleaved yes); expressed in transfected cells; host or cells: yeast (Saccharomyces cerevisiae)
T1 sequence (O77240 entry or part of it, stated change not applied): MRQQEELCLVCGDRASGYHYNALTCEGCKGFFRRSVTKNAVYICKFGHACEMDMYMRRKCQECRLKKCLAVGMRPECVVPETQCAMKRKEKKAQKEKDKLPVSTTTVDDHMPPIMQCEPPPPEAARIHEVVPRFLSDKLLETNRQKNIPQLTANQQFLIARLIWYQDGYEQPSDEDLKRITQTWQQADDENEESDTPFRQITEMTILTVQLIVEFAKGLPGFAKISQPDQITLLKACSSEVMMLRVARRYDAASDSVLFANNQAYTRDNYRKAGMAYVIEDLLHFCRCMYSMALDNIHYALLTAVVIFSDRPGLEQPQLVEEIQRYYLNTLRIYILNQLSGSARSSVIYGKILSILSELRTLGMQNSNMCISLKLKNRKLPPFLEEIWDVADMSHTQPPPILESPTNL
T1 sequence (O76202 with tags, fused parts or gaps partner): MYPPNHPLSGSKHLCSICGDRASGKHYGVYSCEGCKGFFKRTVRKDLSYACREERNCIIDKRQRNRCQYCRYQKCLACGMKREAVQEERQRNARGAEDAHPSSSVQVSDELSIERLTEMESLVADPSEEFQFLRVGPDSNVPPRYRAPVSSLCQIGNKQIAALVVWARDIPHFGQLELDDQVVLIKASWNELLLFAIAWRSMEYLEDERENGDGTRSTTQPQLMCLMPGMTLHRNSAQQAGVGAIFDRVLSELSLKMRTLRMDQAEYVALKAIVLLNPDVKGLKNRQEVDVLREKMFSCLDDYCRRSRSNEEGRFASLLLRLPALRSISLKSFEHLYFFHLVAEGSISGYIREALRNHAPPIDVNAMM
Method: Briefly, yeast cells are cultured in 5 mL of YPD liquid medium overnight at 30° C. The cell culture was diluted 1:20 in YPD media and further grown until cell density reached an O.D of 0.6. at OD600. The cells were pelleted by centrifugation and washed with 10 mL of TE+0.1M lithium acetate. Cells are then resuspended in 10 mL TE+0.1M lithium acetate and incubated at 30° C. for 1 hour. Cells are collected and resuspended in 0.5 mL of TE+ 0.1M lithium acetate. Aliquots of cells (50 μL), were incubated for 15 minutes at 30° C. with 1–2 μg plasmid DNA in the presence of 5 μg of denatured salmon sperm DNA as DNA carrier. In the case of co-transformation, the indicated plasmids were added simultaneously. 50% polyethyleneglycol of molecular weight 4000, diluted in TE, was added to a final concentration of 35%. DMSO was added to the transformation solution simultaneously to a final concentration 3%. The samples were mixed well by vortexing and incubated for an additional 30 minutes at 30° C. The cell mixture is then heated for 15 minutes at 42° C. Cells were then collected and plated onto appropriate yeast selective media. Transformants of 4 plasmids are selected on the complete media without tryptophan, uracil, leucine and histidine.
The yeast cells grown overnight in selective liquid media at 30° C. were diluted in prewarmed liquid selective media to 0.1 at OD600 (ODculture). […]

[2] = molecular target: T2, Aa ΔA/B EcR + RXRγ + GRIP1 (Aedes aegypti, UniProt P49880); format: cell-based, Aedes aegypti; mouse; details: RH 5992 10 μM, 4 hours, DMSO control 0.496
T2 construct: ubiquitin (human, 76 aa) (N, cleaved yes); expressed in transfected cells
T2 sequence (P49880 with tags, fused parts or gaps): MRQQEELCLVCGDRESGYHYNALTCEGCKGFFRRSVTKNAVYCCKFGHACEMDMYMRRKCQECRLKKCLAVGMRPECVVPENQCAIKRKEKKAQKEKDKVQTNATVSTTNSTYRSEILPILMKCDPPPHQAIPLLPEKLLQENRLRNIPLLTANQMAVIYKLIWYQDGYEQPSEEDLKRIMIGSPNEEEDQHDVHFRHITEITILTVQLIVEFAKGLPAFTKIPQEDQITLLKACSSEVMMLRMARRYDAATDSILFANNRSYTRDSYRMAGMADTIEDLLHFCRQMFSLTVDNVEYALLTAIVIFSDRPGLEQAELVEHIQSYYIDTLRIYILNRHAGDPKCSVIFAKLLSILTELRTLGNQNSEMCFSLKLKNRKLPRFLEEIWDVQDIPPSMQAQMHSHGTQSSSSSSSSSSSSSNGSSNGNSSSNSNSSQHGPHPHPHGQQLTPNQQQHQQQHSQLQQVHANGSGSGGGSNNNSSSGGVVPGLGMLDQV
T2 sequence (P28705 whole entry partner): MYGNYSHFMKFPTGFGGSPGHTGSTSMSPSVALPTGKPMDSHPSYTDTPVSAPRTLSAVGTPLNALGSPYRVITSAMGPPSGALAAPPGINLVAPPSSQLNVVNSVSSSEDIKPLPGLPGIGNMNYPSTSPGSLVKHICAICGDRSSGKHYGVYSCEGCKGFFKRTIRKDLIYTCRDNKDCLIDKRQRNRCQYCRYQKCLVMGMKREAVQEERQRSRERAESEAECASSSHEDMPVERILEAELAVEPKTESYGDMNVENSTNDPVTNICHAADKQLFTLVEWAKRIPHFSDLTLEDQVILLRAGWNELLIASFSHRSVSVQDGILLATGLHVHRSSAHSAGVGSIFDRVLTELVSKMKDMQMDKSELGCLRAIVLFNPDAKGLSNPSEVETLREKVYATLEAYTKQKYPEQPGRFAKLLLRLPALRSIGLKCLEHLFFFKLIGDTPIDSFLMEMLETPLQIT
Method: (§1) The human RXR α (Genbank accession number X52773), mouse RXR β (Genbank accession number X66224) or mouse RXR γ (Genebank accession number X66225) subtypes were expressed in yeast-E. coli multicopy 2μ expression plasmids under regulation of CUP1 promoter with the LEU2 selective marker (1).
(§2) Briefly, yeast cells are cultured in 5 mL of YPD liquid medium overnight at 30° C. The cell culture was diluted 1:20 in YPD media and further grown until cell density reached an O.D of 0.6. at OD600. The cells were pelleted by centrifugation and washed with 10 mL of TE+0.1M lithium acetate. Cells are then resuspended in 10 mL TE+0.1M lithium acetate and incubated at 30° C. for 1 hour. Cells are collected and resuspended in 0.5 mL of TE+ 0.1M lithium acetate. […]
(§3) Using the transformation method described above, yeast were co-transformed with a reporter gene as shown in FIG. 2 and the expression vector encoding the full-length Aedes aegypti ecdysone receptor, Aa EcR (FIG. 7A) in the presence or absence of the Aa EcR heterodimer partner, Aa USP (a or b form, FIGS. 8A and 8B respectively). […] As the N-terminal portion of the AaEcR receptor is reported to play a role in ligand independent transactivation, an expression vector containing an N-terminal deletion in the Aa EcR was constructed (see FIG. 7B) and assessed in the β-galactosidase assays described above. […]

[3] = tested on: Aa ΔA/B EcR + RXRβ + GRIP1; format: cell-based, Aedes aegypti; mouse; details: RH 5992 10 μM, 4 hours, DMSO control 0.231
Method: as §1, §2, §3

For `CCc1ccc(C(=O)NN(C(=O)c2cc(C)cc(C)c2)C(C)(C)C)cc1` [RH 5992, tebufenozide], the β-galactosidase activity [1] was 2.500 and 3.000, the β-galactosidase activity [2] was 2.666 and the β-galactosidase activity [3] was 1.983.
